The values below come from US4244954A, “Acridine compounds and methods of combatting viruses with them” (Sterling Drug Inc., priority 1978, dated 1981).

Data set [1] deals with herpes simplex virus type 2. Description: in vitro antiviral activity, serial dilution, herpes simplex virus type 2. To be noted: Human alphaherpesvirus 2; concentration at which active; read-out: antiviral activity against herpes type 2. The class given is cell-based. How it is done: Antiviral activity was determined in vitro by the conventional serial dilution technique against selected virus species such as herpes simplex virus types 1 and 2. In vivo antiviral activity was determined against herpes virus in the mouse genital model and the guinea pig skin infection model.

A further data set concerns Trypanosoma brucei. The class given is in vivo, mice. As to the method: Trypanosomacidal activity was determined against Trypanosoma brucei in mice. In a curative test medication was given (orally or parenterally) as a single dose or daily in equally subdivided doses eight hours apart for four days beginning 72 hours after intraperitoneal infection. In a prophylactic-suppressive test the total daily medication was given as a single treatment one day prior to infection, and thereafter for three consecutive days the total daily medications were administered as equally subdivided doses eight hours apart. The infection was uniformly fatal in five to six days in the absence of therapy. Chemotherapeutic effectiveness was based on extension of survival time. Tests were considered terminated 28 days after infection.

Another data set deals with S. pyogenes. Description: in vitro antimicrobial activity, serial dilution, S. pyogenes. It is filed as cell-based. To be noted: Streptococcus pyogenes, read-out: minimum inhibitory concentration (MIC), bacteriostatic activity against S. pyogenes. As to the method: (§1) The antimicrobial activity of the compounds was determined in vitro by the conventional serial dilution technique against several species of bacteria and fungi, e.g. S. aureus, S. pyogenes, C. albicans, T. mentagrophytes.

The next data set concerns C. albicans. Kind of data set: in vitro antimicrobial activity, serial dilution, C. albicans. To be noted: Candida albicans, read-out: MIC, fungistatic activity against C. albicans. The class given is cell-based. As to the method: as §1
For the next data set, the system named is T. mentagrophytes. Kind of data set: in vitro antimicrobial activity, serial dilution, T. mentagrophytes. The class given is cell-based. The settings on record: Trichophyton mentagrophytes, read-out: MIC, fungistatic activity against T. mentagrophytes. As to the method:
as §1

SMILES strings stand for the structures.

For `CN(C)CCOc1ccc2c(c1)c(Cc1ccccc1)c1ccc(Cl)cc1[n+]2C.Cl.[Cl-]` [Example 86, 2-(2-Dimethylaminoethoxy)-6-chloro-10-methyl-9-benzylacridinium chloride hydrochloride], in data set [1], the minimal effective concentration was found to be 12 µg/mL. In addition, the “curative effect against T. brucei infection” value with Trypanosoma brucei (mice, oral, 50 mg/kg/day×4) is “ineffective”. Further, the “toxicity to the animals in the oral curative test” value with Trypanosoma brucei (mouse, in vivo, po, 200 mg/kg/day) is “toxic to the animals”. Further, the MIC stood at 7.8 µg/mL in the data set with S. pyogenes, 15.6 µg/mL with C. albicans and 31.3 µg/mL with T. mentagrophytes.
